# Reference: ChEMBL document CHEMBL4342475, “Structure-Bioactivity Relationships of Lapatinib Derived Analogs against Schistosoma mansoni” (ACS Med Chem Lett, 2020)
# Active and inactive are the calls of the source. The calls are words filed in the database; no cut-off is given here.
# Tested on: Schistosoma mansoni
# Assay: Antiparasitic activity against Schistosoma mansoni infected in Hamster assessed as severity score at 10 uM incubated for 1 hr
# Assay type: functional, organism-based
# Details: not given
row,SMILES,Activity
1,CCCN1CCCN(c2ncc(-c3ccc4c(Nc5cnccn5)ccnc4c3C)cn2)CC1,inactive
2,COc1ccc(Nc2ccnc3cc(-c4cnc(N5CCCN(C)CC5)nc4)ccc23)cc1Cl,inactive
3,CN1CCN(c2ncc(-c3ccc4c(NC5CCC(N(C)C)CC5)ccnc4c3)cn2)CC1 (stereo unspecified),inactive
4,CN1CCN(c2ncc(-c3ccc4c(Nc5cnccn5)ccnc4c3)cn2)CC1,inactive
5,CCN1CCCN(c2ncc(-c3ccc4c(Nc5cnccn5)ccnc4c3)cn2)CC1,inactive
6,Cc1cnc(Nc2ccnc3cc(-c4cnc(N5CCCN(C)CC5)nc4)ccc23)cn1,inactive
7,COc1ccc(NC(=O)c2ccc(-c3cnc(N4CCCN(C)CC4)nc3)cc2O)cc1Cl,inactive
8,CN1CCCN(c2ncc(-c3ccc4c(Nc5cnccn5)ccnc4c3)cn2)CC1,inactive
9,COc1ccc(NC(=O)c2ccc(-c3ccc(S(=O)(=O)N4CCN(C)CC4)cc3)cc2O)cc1Cl,inactive
10,CN(CCNc1ncc(-c2ccc3c(Nc4cnccn4)ccnc3c2)cn1)C(=O)OC(C)(C)C,inactive
11,Cc1cc2c(Nc3cnccn3)ccnc2cc1-c1cnc(N2CCCN(C)CC2)nc1,Active
12,Cc1cc2c(Nc3cnccn3)ccnc2cc1-c1cnc(N2CCCNCC2)nc1,inactive
13,CCN1CCCN(c2ncc(-c3ccc4c(Nc5cnccn5)ccnc4c3C)cn2)CC1,inactive
14,Cc1cnc(Nc2ccnc3cc(-c4cnc(N5CCN(C)CC5)nc4)ccc23)cn1,inactive
15,COc1ccc(NC(=O)c2ccc(-c3cnc(N4CCN(C)CC4)nc3)cc2O)cc1Cl,inactive
16,CC(C)(C)OC(=O)N1CCN(c2ncc(-c3ccc4c(Nc5cnccn5)ccnc4c3)cn2)CC1,inactive
17,c1cnc(Nc2ccnc3cc(-c4cnc(N5CCCNCC5)nc4)ccc23)cn1,inactive
18,CN1CCN(c2ncc(-c3ccc4c(NC5CCOCC5)ccnc4c3)cn2)CC1,inactive
19,COC(=O)C1CCCN1c1ncc(-c2ccc3c(Nc4cnccn4)ccnc3c2)cn1 (stereo unspecified),inactive
20,Cc1c(-c2cnc(N3CCCN(C)CC3)nc2)ccc2c(Nc3cnccn3)ccnc12,inactive

# Tested on: Schistosoma mansoni
# Assay: Antiparasitic activity against Schistosoma mansoni infected in Hamster assessed as severity score at 10 uM incubated for 5 hrs
# Assay type: functional, organism-based
# Details: not given
row,SMILES,Activity
1,CCCN1CCCN(c2ncc(-c3ccc4c(Nc5cnccn5)ccnc4c3C)cn2)CC1,inactive
2,COc1ccc(Nc2ccnc3cc(-c4cnc(N5CCCN(C)CC5)nc4)ccc23)cc1Cl,inactive
3,CN1CCN(c2ncc(-c3ccc4c(NC5CCC(N(C)C)CC5)ccnc4c3)cn2)CC1 (stereo unspecified),inactive
4,CN1CCN(c2ncc(-c3ccc4c(Nc5cnccn5)ccnc4c3)cn2)CC1,inactive
5,CCN1CCCN(c2ncc(-c3ccc4c(Nc5cnccn5)ccnc4c3)cn2)CC1,inactive
6,Cc1cnc(Nc2ccnc3cc(-c4cnc(N5CCCN(C)CC5)nc4)ccc23)cn1,inactive
7,COc1ccc(NC(=O)c2ccc(-c3cnc(N4CCCN(C)CC4)nc3)cc2O)cc1Cl,inactive
8,CN1CCCN(c2ncc(-c3ccc4c(Nc5cnccn5)ccnc4c3)cn2)CC1,inactive
9,COc1ccc(NC(=O)c2ccc(-c3ccc(S(=O)(=O)N4CCN(C)CC4)cc3)cc2O)cc1Cl,inactive
10,CN(CCNc1ncc(-c2ccc3c(Nc4cnccn4)ccnc3c2)cn1)C(=O)OC(C)(C)C,inactive
11,Cc1cc2c(Nc3cnccn3)ccnc2cc1-c1cnc(N2CCCN(C)CC2)nc1,Active
12,Cc1cc2c(Nc3cnccn3)ccnc2cc1-c1cnc(N2CCCNCC2)nc1,inactive
13,CCN1CCCN(c2ncc(-c3ccc4c(Nc5cnccn5)ccnc4c3C)cn2)CC1,inactive
14,Cc1cnc(Nc2ccnc3cc(-c4cnc(N5CCN(C)CC5)nc4)ccc23)cn1,Active
15,COc1ccc(NC(=O)c2ccc(-c3cnc(N4CCN(C)CC4)nc3)cc2O)cc1Cl,inactive
16,CC(C)(C)OC(=O)N1CCN(c2ncc(-c3ccc4c(Nc5cnccn5)ccnc4c3)cn2)CC1,inactive
17,c1cnc(Nc2ccnc3cc(-c4cnc(N5CCCNCC5)nc4)ccc23)cn1,inactive
18,CN1CCN(c2ncc(-c3ccc4c(NC5CCOCC5)ccnc4c3)cn2)CC1,inactive
19,COC(=O)C1CCCN1c1ncc(-c2ccc3c(Nc4cnccn4)ccnc3c2)cn1 (stereo unspecified),inactive
20,Cc1c(-c2cnc(N3CCCN(C)CC3)nc2)ccc2c(Nc3cnccn3)ccnc12,inactive

# Tested on: Schistosoma mansoni
# Assay: Antiparasitic activity against Schistosoma mansoni infected in Hamster assessed as severity score at 10 uM incubated for 24 hrs
# Assay type: functional, organism-based
# Details: not given
row,SMILES,Activity
1,CCCN1CCCN(c2ncc(-c3ccc4c(Nc5cnccn5)ccnc4c3C)cn2)CC1,Active
2,COc1ccc(Nc2ccnc3cc(-c4cnc(N5CCCN(C)CC5)nc4)ccc23)cc1Cl,Active
3,CN1CCN(c2ncc(-c3ccc4c(NC5CCC(N(C)C)CC5)ccnc4c3)cn2)CC1 (stereo unspecified),inactive
4,CN1CCN(c2ncc(-c3ccc4c(Nc5cnccn5)ccnc4c3)cn2)CC1,inactive
5,CCN1CCCN(c2ncc(-c3ccc4c(Nc5cnccn5)ccnc4c3)cn2)CC1,inactive
6,COc1ccc(NC(=O)c2ccc(-c3cnc(N4CCCN(C)CC4)nc3)cc2O)cc1Cl,inactive
7,CN1CCCN(c2ncc(-c3ccc4c(Nc5cnccn5)ccnc4c3)cn2)CC1,inactive
8,COc1ccc(NC(=O)c2ccc(-c3ccc(S(=O)(=O)N4CCN(C)CC4)cc3)cc2O)cc1Cl,inactive
9,CN(CCNc1ncc(-c2ccc3c(Nc4cnccn4)ccnc3c2)cn1)C(=O)OC(C)(C)C,inactive
10,Cc1cc2c(Nc3cnccn3)ccnc2cc1-c1cnc(N2CCCN(C)CC2)nc1,Active
11,Cc1cc2c(Nc3cnccn3)ccnc2cc1-c1cnc(N2CCCNCC2)nc1,inactive
12,CCN1CCCN(c2ncc(-c3ccc4c(Nc5cnccn5)ccnc4c3C)cn2)CC1,inactive
13,Cc1cnc(Nc2ccnc3cc(-c4cnc(N5CCN(C)CC5)nc4)ccc23)cn1,Active
14,COc1ccc(NC(=O)c2ccc(-c3cnc(N4CCN(C)CC4)nc3)cc2O)cc1Cl,inactive
15,CC(C)(C)OC(=O)N1CCN(c2ncc(-c3ccc4c(Nc5cnccn5)ccnc4c3)cn2)CC1,inactive
16,c1cnc(Nc2ccnc3cc(-c4cnc(N5CCCNCC5)nc4)ccc23)cn1,inactive
17,CN1CCN(c2ncc(-c3ccc4c(NC5CCOCC5)ccnc4c3)cn2)CC1,inactive
18,Cc1c(-c2cnc(N3CCCN(C)CC3)nc2)ccc2c(Nc3cnccn3)ccnc12,inactive

# Tested on: Schistosoma mansoni
# Assay: Antiparasitic activity against Schistosoma mansoni infected in Hamster assessed as severity score at 10 uM incubated for 48 hrs
# Assay type: functional, organism-based
# Details: not given
row,SMILES,Activity
1,CCCN1CCCN(c2ncc(-c3ccc4c(Nc5cnccn5)ccnc4c3C)cn2)CC1,Active
2,COc1ccc(Nc2ccnc3cc(-c4cnc(N5CCCN(C)CC5)nc4)ccc23)cc1Cl,Active
3,CN1CCN(c2ncc(-c3ccc4c(NC5CCC(N(C)C)CC5)ccnc4c3)cn2)CC1 (stereo unspecified),inactive
4,CN1CCN(c2ncc(-c3ccc4c(Nc5cnccn5)ccnc4c3)cn2)CC1,inactive
5,CCN1CCCN(c2ncc(-c3ccc4c(Nc5cnccn5)ccnc4c3)cn2)CC1,inactive
6,Cc1cnc(Nc2ccnc3cc(-c4cnc(N5CCCN(C)CC5)nc4)ccc23)cn1,Active
7,COc1ccc(NC(=O)c2ccc(-c3cnc(N4CCCN(C)CC4)nc3)cc2O)cc1Cl,Active
8,CN1CCCN(c2ncc(-c3ccc4c(Nc5cnccn5)ccnc4c3)cn2)CC1,inactive
9,CN(CCNc1ncc(-c2ccc3c(Nc4cnccn4)ccnc3c2)cn1)C(=O)OC(C)(C)C,Active
10,Cc1cc2c(Nc3cnccn3)ccnc2cc1-c1cnc(N2CCCN(C)CC2)nc1,Active
11,Cc1cc2c(Nc3cnccn3)ccnc2cc1-c1cnc(N2CCCNCC2)nc1,inactive
12,CCN1CCCN(c2ncc(-c3ccc4c(Nc5cnccn5)ccnc4c3C)cn2)CC1,inactive
13,Cc1cnc(Nc2ccnc3cc(-c4cnc(N5CCN(C)CC5)nc4)ccc23)cn1,Active
14,CC(C)(C)OC(=O)N1CCN(c2ncc(-c3ccc4c(Nc5cnccn5)ccnc4c3)cn2)CC1,inactive
15,c1cnc(Nc2ccnc3cc(-c4cnc(N5CCCNCC5)nc4)ccc23)cn1,inactive
16,CN1CCN(c2ncc(-c3ccc4c(NC5CCOCC5)ccnc4c3)cn2)CC1,inactive
17,COC(=O)C1CCCN1c1ncc(-c2ccc3c(Nc4cnccn4)ccnc3c2)cn1 (stereo unspecified),Active
18,Cc1c(-c2cnc(N3CCCN(C)CC3)nc2)ccc2c(Nc3cnccn3)ccnc12,inactive

# Tested on: not listed separately
# Assay: Cytotoxicity against human HepG2 cells assessed as reduction in cell viability 48 hrs by MTT assay
# Assay type: cell-based
# Details: read-out: TC50
row,SMILES,CC50 at 48 h [µM]
1,CCCN1CCCN(c2ncc(-c3ccc4c(Nc5cnccn5)ccnc4c3C)cn2)CC1,12
2,COc1ccc(Nc2ccnc3cc(-c4cnc(N5CCCN(C)CC5)nc4)ccc23)cc1Cl,6.8
3,CCN1CCCN(c2ncc(-c3ccc4c(Nc5cnccn5)ccnc4c3)cn2)CC1,> 36
4,COc1ccc(NC(=O)c2ccc(-c3ccc(S(=O)(=O)N4CCN(C)CC4)cc3)cc2O)cc1Cl,> 29
5,Cc1cc2c(Nc3cnccn3)ccnc2cc1-c1cnc(N2CCCN(C)CC2)nc1,7.6
6,Cc1cc2c(Nc3cnccn3)ccnc2cc1-c1cnc(N2CCCNCC2)nc1,13
7,CCN1CCCN(c2ncc(-c3ccc4c(Nc5cnccn5)ccnc4c3C)cn2)CC1,16
8,Cc1cnc(Nc2ccnc3cc(-c4cnc(N5CCN(C)CC5)nc4)ccc23)cn1,16
9,COc1ccc(NC(=O)c2ccc(-c3cnc(N4CCN(C)CC4)nc3)cc2O)cc1Cl,27
10,c1cnc(Nc2ccnc3cc(-c4cnc(N5CCCNCC5)nc4)ccc23)cn1,25

# Tested on: not listed separately
# Assay: Aqueous solubility of compound incubated for 24 hrs by LC-MS/MS analysis
# Assay type: physicochemical
# Details: buffer, 24 h
row,SMILES,solubility [µM]
1,CCCN1CCCN(c2ncc(-c3ccc4c(Nc5cnccn5)ccnc4c3C)cn2)CC1,450
2,Cc1cc2c(Nc3cnccn3)ccnc2cc1-c1cnc(N2CCCN(C)CC2)nc1,670
3,Cc1cc2c(Nc3cnccn3)ccnc2cc1-c1cnc(N2CCCNCC2)nc1,1000
4,CCN1CCCN(c2ncc(-c3ccc4c(Nc5cnccn5)ccnc4c3C)cn2)CC1,580
5,Cc1c(-c2cnc(N3CCCN(C)CC3)nc2)ccc2c(Nc3cnccn3)ccnc12,860

# Tested on: not listed separately
# Assay: Protein binding in human plasma at 1 uM by LC-MS/MS analysis
# Assay type: ADME, cell-free
# Details: not given
row,SMILES,PPB [%]
1,CCCN1CCCN(c2ncc(-c3ccc4c(Nc5cnccn5)ccnc4c3C)cn2)CC1,94
2,Cc1cc2c(Nc3cnccn3)ccnc2cc1-c1cnc(N2CCCN(C)CC2)nc1,82
3,Cc1cc2c(Nc3cnccn3)ccnc2cc1-c1cnc(N2CCCNCC2)nc1,70
4,CCN1CCCN(c2ncc(-c3ccc4c(Nc5cnccn5)ccnc4c3C)cn2)CC1,88
5,Cc1c(-c2cnc(N3CCCN(C)CC3)nc2)ccc2c(Nc3cnccn3)ccnc12,82

# Tested on: not listed separately
# Assay: Metabolic stability in human liver microsomes assessed as intrinsic clearance by LC-MS/MS analysis
# Assay type: ADME, Microsome
# Details: not given
row,SMILES,intrinsic clearance [µL/min/mg]
1,CCCN1CCCN(c2ncc(-c3ccc4c(Nc5cnccn5)ccnc4c3C)cn2)CC1,300
2,Cc1cc2c(Nc3cnccn3)ccnc2cc1-c1cnc(N2CCCN(C)CC2)nc1,260
3,Cc1cc2c(Nc3cnccn3)ccnc2cc1-c1cnc(N2CCCNCC2)nc1,13
4,CCN1CCCN(c2ncc(-c3ccc4c(Nc5cnccn5)ccnc4c3C)cn2)CC1,160
5,Cc1c(-c2cnc(N3CCCN(C)CC3)nc2)ccc2c(Nc3cnccn3)ccnc12,120
